≈ marks a conversion by molar mass, not a printed value. Read-outs that look alike come from different tables or passages of the source.
Columns and labels:
[1] = Influence of temperature on the state of matter of Py-C12 at pH 7.0 and pH 9.0 (Example 2); assay type: physicochemical; set-up: key to state of matter: X: liquid; o: solid; details: for solubility in water / state of matter: 1% (w/v); for state of matter: 1% w/v
Experimental: 1% (w/v) 5-N-carboxamido-2-pyrrolidone-N-n-dodecyl propane-1,3-diamine (Py-C12) free base was adjusted with HCl or NaOH to pH values 7.0 and 9.0 and subsequently incubated at temperatures between 2° C. and 60° C. […] (see table 2).

[2] = test system: β-galactosidase-expressing E. coli strain; test: Wash resistance and biocidal activity of Py-C12 treated cotton fabric (Example 18); assay type: cell-based; details: treated with 1% (w/v) free base, E. coli 3 days at 37° C.
Experimental: In a first step, 1% (w/v) Py-C12 free base in water was warmed to 50° C. to obtain a liquid solution. After incubation with the Py-C12 solution, the samples were cooled to room temperature upon which the liquid Py-C12 was converted into a solid phase and thus immobilized to the material. After drying, samples were washed with water at room temperature 10 and 30 times for 15 minutes each time. Thereafter, all samples were inoculated with a β-galactosidase-expressing E. coli strain and then incubated for 3 days at 37° C.

[3] = Modulation of the state of matter by pH shift using HCl and NaOH (Example 7); assay type: physicochemical
[4] = Influence of temperature on the state of matter of Py-C12 free base at different concentrations in water (Example 4); assay type: physicochemical; set-up: key: X: liquid; o: solid
Experimental: 5-N-carboxamido-2-pyrrolidone-N-n-dodecyl propane-1,3-diamine (Py-C12) free base at concentrations of 1% (w/v), 2.5% (w/V), 5% (w/V), 10% (w/V), 20% (w/), 30% (W/), 40% (w/V) were incubated at temperatures between 36° C. and 50° C. (see table 4).

[5] = Modulation of the state of matter by temperature shift (Example 10); assay type: physicochemical; details: 1% and 5% (w/v) free base in water
[6] = free base; i.e. 0.0033% (w/v) at ph 9.5; cited from earlier work
[7] = Modulation of the state of matter by salt concentration (Example 9); assay type: physicochemical; details: 2% (w/v), pH 7 (HCl), NaCl 0.5 M to 3 M in water, room temperature
From the text: 2% (w/v) 5-N-carboxamido-2-pyrrolidone-N′-n-dodecyl propane-1,3-diamine (Py-C12) was adjusted with HCl to pH 7 and combined with different concentrations of NaCl ranging from 0.5 M to 3 M in water at room temperature. A clearly visible precipitate (white color) is observed at concentrations of 1.5 M or more (see FIG. 4).

[8] = Interactions between salt concentration, temperature and pH on the state of matter of Py-C12 (Example 3); assay type: physicochemical; set-up: key: X: liquid; o: solid; details: 5% w/v
Experimental: […] The samples were combined with NaCl solutions using concentrations between 0 and 3 M in water and subsequently incubated at temperatures between 24° C. and 45° C.

With `CCCCCCCCCCCCNCCCNC(=O)C1CCC(=O)N1` (stereo not shown) [Py-C12, 5-N-carboxamido-2-pyrrolidone-N′-n-dodecyl propane-1,3-diamine] the “solubility in water / state of matter” value ([1]; pH 7, temperatures between 2° C. and 60° C.) was “completely soluble”, the “solubility in water / state of matter” value ([1]; pH 9.0, temperatures between 2° C. and 60° C.) was “only present in liquid state at the tested temperatures of 50 °C and 60 °C” and the state of matter ([1]; pH 7.0, 2° C.) was “X”. For the same compound, the state of matter ([1]; pH 7.0, 4° C.) was “X”, the state of matter ([1]; pH 7.0, 8° C.) was “X” and the state of matter ([1]; pH 7.0, 12° C.) was “X”. The state of matter ([1]; pH 7.0, 16° C.) was “X”, the state of matter ([1]; pH 7.0, 20° C.) was “X” and the state of matter ([1]; pH 7.0, 30° C.) was “X”. For the same compound, the state of matter ([1]; pH 7.0, 38° C.) was “X”, the state of matter ([1]; pH 7.0, 50° C.) was “X” and the state of matter ([1]; pH 7.0, 60° C.) was “X”. For the same compound, the state of matter ([1]; pH 9.0, 2° C.) was “o”, the state of matter ([1]; pH 9.0, 4° C.) was “o” and the state of matter ([1]; pH 9.0, 8° C.) was “o”. The state of matter ([1]; pH 9.0, 12° C.) was “o”, the state of matter ([1]; pH 9.0, 16° C.) was “o” and the state of matter ([1]; pH 9.0, 20° C.) was “o”. For the same compound, the state of matter ([1]; pH 9.0, 30° C.) was “o”, the state of matter ([1]; pH 9.0, 38° C.) was “o” and the state of matter ([1]; pH 9.0, 50° C.) was “X”. The state of matter ([1]; pH 9.0, 60° C.) was “X”, the “bacterial growth on treated cotton fabric after washing” value ([2]; washed 10 times with water 15 min) was “doesn't show any bacterial growth” and the “bacterial growth on treated cotton fabric after washing” value ([2]; washed 30 times with water 15 min) was “few spots”. For the same compound, the solubility in water ([3]; 1% (w/v) free base adjusted with HCl to pH 7, room temperature) was “completely soluble”, the “state of matter after pH increase” value ([3]; 1% (w/v), NaOH added to increase pH above 9.0, time dependent) was “started to precipitate” and the state of matter ([4]; free base 1% (w/v) in water, 36° C.) was “o”. The state of matter ([4]; free base 1% (w/v) in water, 38° C.) was “o”, the state of matter ([4]; free base 1% (w/v) in water, 40° C.) was “X” and the state of matter ([4]; free base 1% (w/v) in water, 42° C.) was “X”. For the same compound, the state of matter ([4]; free base 1% (w/v) in water, 44° C.) was “X”, the state of matter ([4]; free base 1% (w/v) in water, 46° C.) was “X” and the state of matter ([4]; free base 1% (w/v) in water, 48° C.) was “X”. The state of matter ([4]; free base 1% (w/v) in water, 50° C.) was “X”, the state of matter ([4]; free base 2.5% (w/v) in water, 36° C.) was “o” and the state of matter ([4]; free base 2.5% (w/v) in water, 38° C.) was “o”. For the same compound, the state of matter ([4]; free base 2.5% (w/v) in water, 40° C.) was “X”, the state of matter ([4]; free base 2.5% (w/v) in water, 42° C.) was “X” and the state of matter ([4]; free base 2.5% (w/v) in water, 44° C.) was “X”. For the same compound, the state of matter ([4]; free base 2.5% (w/v) in water, 46° C.) was “X”, the state of matter ([4]; free base 2.5% (w/v) in water, 48° C.) was “X” and the state of matter ([4]; free base 2.5% (w/v) in water, 50° C.) was “X”. For the same compound, the state of matter ([4]; free base 5% (w/v) in water, 36° C.) was “o”, the state of matter ([4]; free base 5% (w/v) in water, 38° C.) was “o” and the state of matter ([4]; free base 5% (w/v) in water, 40° C.) was “X”. The state of matter ([4]; free base 5% (w/v) in water, 42° C.) was “X”, the state of matter ([4]; free base 5% (w/v) in water, 44° C.) was “X” and the state of matter ([4]; free base 5% (w/v) in water, 46° C.) was “X”. The state of matter ([4]; free base 5% (w/v) in water, 48° C.) was “X”, the state of matter ([4]; free base 5% (w/v) in water, 50° C.) was “X” and the state of matter ([4]; free base 10% (w/v) in water, 36° C.) was “o”. The state of matter ([4]; free base 10% (w/v) in water, 38° C.) was “o”, the state of matter ([4]; free base 10% (w/v) in water, 40° C.) was “X” and the state of matter ([4]; free base 10% (w/v) in water, 42° C.) was “X”. The state of matter ([4]; free base 10% (w/v) in water, 44° C.) was “X”, the state of matter ([4]; free base 10% (w/v) in water, 46° C.) was “X” and the state of matter ([4]; free base 10% (w/v) in water, 48° C.) was “X”. For the same compound, the state of matter ([4]; free base 10% (w/v) in water, 50° C.) was “X”, the state of matter ([4]; free base 20% (w/v) in water, 36° C.) was “o” and the state of matter ([4]; free base 20% (w/v) in water, 38° C.) was “o”. For the same compound, the state of matter ([4]; free base 20% (w/v) in water, 40° C.) was “o”, the state of matter ([4]; free base 20% (w/v) in water, 42° C.) was “o” and the state of matter ([4]; free base 20% (w/v) in water, 44° C.) was “X”. The state of matter ([4]; free base 20% (w/v) in water, 46° C.) was “X”, the state of matter ([4]; free base 20% (w/v) in water, 48° C.) was “X” and the state of matter ([4]; free base 20% (w/v) in water, 50° C.) was “X”. The state of matter ([4]; free base 30% (w/v) in water, 36° C.) was “o”, the state of matter ([4]; free base 30% (w/v) in water, 38° C.) was “o” and the state of matter ([4]; free base 30% (w/v) in water, 40° C.) was “o”. For the same compound, the state of matter ([4]; free base 30% (w/v) in water, 42° C.) was “o”, the state of matter ([4]; free base 30% (w/v) in water, 44° C.) was “X” and the state of matter ([4]; free base 30% (w/v) in water, 46° C.) was “X”. For the same compound, the state of matter ([4]; free base 30% (w/v) in water, 48° C.) was “X”, the state of matter ([4]; free base 30% (w/v) in water, 50° C.) was “X” and the state of matter ([4]; free base 40% (w/v) in water, 36° C.) was “o”. The state of matter ([4]; free base 40% (w/v) in water, 38° C.) was “o”, the state of matter ([4]; free base 40% (w/v) in water, 40° C.) was “o” and the state of matter ([4]; free base 40% (w/v) in water, 42° C.) was “o”. For the same compound, the state of matter ([4]; free base 40% (w/v) in water, 44° C.) was “X”, the state of matter ([4]; free base 40% (w/v) in water, 46° C.) was “X” and the state of matter ([4]; free base 40% (w/v) in water, 48° C.) was “X”. For the same compound, the state of matter ([4]; free base 40% (w/v) in water, 50° C.) was “X”, the solubility in water ([5]; 50° C.) was “completely soluble” and the state of matter ([5]; room temperature) was “readily precipitated”. The solubility in water [6] was 33 µg/mL (≈ 93.3 µM), the “NaCl concentration at which a clearly visible precipitate is observed” value [7] was at least 1.5 M and the state of matter ([8]; pH 4.0, 28° C., 0.5M NaCl) was “X”. For the same compound, the state of matter ([8]; pH 4.0, 28° C., 1.0M NaCl) was “X”, the state of matter ([8]; pH 4.0, 28° C., 1.5M NaCl) was “X” and the state of matter ([8]; pH 4.0, 28° C., 2.0M NaCl) was “X”. For the same compound, the state of matter ([8]; pH 4.0, 28° C., 2.5M NaCl) was “o”, the state of matter ([8]; pH 4.0, 28° C., 3.0M NaCl) was “o” and the state of matter ([8]; pH 4.0, 28° C., no NaCl) was “X”. For the same compound, the state of matter ([8]; pH 9.0, 24 °C, 0.5M NaCl) was “o”, the state of matter ([8]; pH 9.0, 24 °C, 1.0M NaCl) was “o” and the state of matter ([8]; pH 9.0, 24 °C, 1.5M NaCl) was “o”. For the same compound, the state of matter ([8]; pH 9.0, 24 °C, 2.0M NaCl) was “o”, the state of matter ([8]; pH 9.0, 24 °C, 2.5M NaCl) was “o” and the state of matter ([8]; pH 9.0, 24 °C, 3.0M NaCl) was “o”. The state of matter ([8]; pH 9.0, 24 °C, no NaCl) was “o”.

Reference: US20250287947A1, “BIOCIDES AND ADHESIVE BINDING THEREOF” (EBERHARD KARLS UNIVERSITÄT TÜBINGEN MEDIZINISCHE FAKULTÄT, priority 2022, published 2025)
